Laboratory results published in US20080155704A1, “Methods and Compositions for Determining in vivo Activity of BiP” (King's College London, priority 2006, published 2008).
Read-outs that look alike come from different tables or passages of the source.

Experiments:
[1] = system: collagen-induced arthritis (CIA); settings: administration of BiP to mice, literature reference, cited from earlier work
[2] = system: splenocytes and lymph node cells; assay: Intravenous injection of BiP into DBA mice, splenocytes and lymph node cells analysed; format: in vivo, mouse
Procedure: The biomarkers were investigated in two situations: 1) when 50.10^6 human peripheral blood mononuclear cells were injected intraperitoneally, with or without BiP (100 μg), into a mouse and the cells were harvested from the peritoneum 11 days later; or (2) BiP (200 μg) was injected intravenously into a mouse and the spleens and lymph nodes removed 11 days later.
Mice were sacrificed at the end of the experiment and the spleens and lymph nodes removed. The spleens and lymph nodes were then gently pushed through a fine mesh to produce a single cell suspension. The cells were then either set up in culture or stained as for human cells following the protocol below.
IF staining of mouse cells was as described for human cells above.
Mice were given a single dose of BiP and left for 11 days before they were sacrificed and their spleens and lymph nodes removed for analysis. The splenocytes and lymph node cells were pooled and used in immunofluorescence and flow cytometry studies. They were also set up in a simple recall antigen proliferation study to check that BiP had been successfully administered at time-point zero.
Cells were examined for: CD3, CD4, CD8, CD25, CD122, CCR4, intracellular CTLA-4 and cells actively producing IL-10 and interferon (IFN)γ.
Thus reduction of IFN (decreased IFN production) is an excellent marker of BiP function in vivo.

[3] = system: human rheumatoid arthritis synovial membrane (RASM); assay: Human RASM transplanted in SCID mice (RASM/SCID chimeric mouse); format: in vivo, human tissue in SCID mice
Procedure: Small pieces of human synovial tissue from patients with rheumatoid arthritis were transplanted into SCID mice. […] CD86, HLA-DR, TNFα and IL-6 expression was measured by immunohistology. (B) the weight of explants retrieved from the mice treated as indicated after 12d.
This study used the previously developed SCID-HuRAg murine model (20). Briefly, pannus tissue, consisting of the leading edge of the invading synovial membrane into articular cartilage and bone, was collected as a single mass from RA patients at the time of arthroplastic surgery with full ethical approval. A block of 4-8 mm in diameter was implanted subcutaneously into the back of 6- to 7-week-old male SCID mice (CB.17/Icr; Charles River Japan, Tokyo, Japan), which had been bred under specific pathogen-free conditions. Successful implantation of human RA tissue was assessed visually 4 weeks after implantation, after which therapeutic manipulation of the mice was undertaken. […] The mice were sacrificed 12 days after injection to allow removal of the implanted tissue.
The degree of synovial inflammation of the implanted tissue was assessed as previously described. The histological findings were scored according to two different scoring systems: Koizumi's (40) or Rooney's method (41).
Paraffin embedded tissue sections were used for immunostaining for CD86 and HLA-DR. Frozen tissue sections were stained for the detection of cytokines (TNF, IL-1, IL-6, and IL-10). The tissue sections were blocked for endogenous peroxidase activity with 0.3% hydrogen peroxide in methanol for 15 min. Non-specific antibody binding was blocked with 10% normal goat serum for 1 hr at room temperature. The sections were incubated with specific antibody or normal IgG for 1 hr at 37° C. The sections incubated with anti-CD86 antibody were treated with biotinylated secondary antibody, then visualised using a kit (Vectastatin ABC kit, Vector) with 3-amino-n-ethylcarbazole (Nichirei, Tokyo) as a substrate. The other sections were treated with peroxidase-conjugated anti-mouse IgG (Histofine Simple Stain MAX PO; Nichirei, Tokyo) for 30 min at room temperature and developed with 3-amino-n-ethylcarbazole (Nichirei, Tokyo) for visualization. Sections were counterstained with Mayer haematoxylin for 10 sec and mounted in aqueous permanent mounting solution (Nichirei, Tokyo).
The serum levels of human IL-4, IL-6 and IL-10 were measured by a quantitative sandwich enzyme immunoassay technique (Quantikine HS, R&D systems) according to the manufacturer's instructions.

[4] = system: autologous responder T cells; assay: Regulatory T cell activity after co-culture with DC(BiP): responder T cell proliferation to anti-CD3; format: cell-based, human
Procedure: FIG. 12: Co-culture with BiP-treated dendritic cells (DC) leads T cells to have regulatory function. After 4d pre-incubation with either autologous or allogeneic DC, or DC(BiP), T cells were washed and set up in autologous cultures with irradiated peripheral blood mononuclear cells (PBMC) and responder T cells (1:1:1 ratio) (105 cells each/well) in the presence or absence of anti-CD3 antibody (1/2000 dilution). […] (B) a representative experiment showing an autologous experiment using Δ counts per minute (Δcpm) (stimulated-unstimulated cpm) following stimulation with anti-CD3 antibody to irradiated PBMC (irMC) or responder T cells (rT) alone and cultures with irMC+rT+T cells prestimulated (pT) by autologous DC populations as indicated; (C) mean ±standard deviation of unstimulated and stimulated cultures from a representative experiment where autologous irMC+rT+pT, previously cocultured with allogeneic DC populations as indicated, were present in ratio 1:1:1.
Purified T cells (>95% T cells) (2.10^6/well) either autologous or allogeneic were cultured in the absence or presence of irradiated DC populations in 24-well flat-bottomed plates at a IDC: 10 T cell ratio for 4 days. […]

[5] = BiP 200 μg/mouse i.v., 11 days, n=3
[6] = 10 μg/mouse single i.v. injection, 12 days
[7] = BiP 10 μg/animal i.v., 12d (FIG. 15A)

BiP: 78 kD endoplasmic reticulum chaperone protein as disclosed in WO 00/21995; recombinant human protein
effect on collagen-induced arthritis [1]: prevented or treated ongoing collagen-induced arthritis
effect on collagen-induced arthritis ([1]; listed as rhuBiP): prevented the induction of experimental arthritis
intracellular CTLA-4 ([2]; BiP 200 μg/mouse i.v., 11 days): Increased intracellular CTLA-4
IL-10 producing cells [2, 5]: 6.1±1.3%
cells producing IFN gamma after stimulation by concanavalin A [2, 5]: 3.9±1.7%
% of CD8CD122+ cells ([2]; BiP 200 μg/mouse i.v., 11 days, pooled splenocytes and lymph node cells, n=3): 26.3±3.7%
IFN production by cells cultured overnight with con A ([2]; cells from mice given BiP 11 days previously (FIG. 5)): significant reduction in IFN production
human IL-6 in mouse sera ([3]; 10 μg/mouse i.v., 12 days): 0.5 ± 0.2 pg/mL
Koizumi score of synovial inflammation [3, 6]: 6.1±2.6
Rooney score of synovial inflammation [3, 6]: 16±6
IL-10 in explants ([3]; BiP 10 μg/animal i.v., 12d): no increase in IL-10 was detected
expression of CD86 and HLA-DR in explant sections (immunohistology) [3, 7]: Significantly reduced expression of CD86 and HLA-DR
production of human TNFα and IL-6 in explants (immunohistology) [3, 7]: decreased production of human TNFα and IL-6
% inhibition of responder T cell proliferation to anti-CD3 antibody ([4]; T cells from 4d co-culture with allogeneic DC(BiP), n=3): 28.7±13.3 % inhibition
% inhibition of responder T cell proliferation to anti-CD3 antibody ([4]; T cells from 4d co-culture with autologous DC(BiP), n=5): 63.8±13.7 % inhibition
